Experimental data reported in patent publication US20030203966A1, “Nitromethylthiobenzene derivatives as aldose reductase inhihibitors” (priority 1996, published 2003).
Counter-ions that a name gives are not always drawn.

| SMILES | melting point |
| --- | --- |
| Cc1cc(NS(=O)(=O)Cc2ccccc2[N+](=O)[O-])cc(C)c1S(=O)(=O)C[N+](=O)[O-] | 189 to 190 °C |
| Cc1cc(NC(=O)CCCCCCC(=O)Nc2cc(C)c(S(=O)(=O)C[N+](=O)[O-])c(C)c2)cc(C)c1S(=O)(=O)C[N+](=O)[O-] | 235 to 238 °C |
| Cc1cc(NC(=O)CCCC(=O)Nc2cc(C)c(S(=O)(=O)C[N+](=O)[O-])c(C)c2)cc(C)c1S(=O)(=O)C[N+](=O)[O-] | 207 to 210 °C |
| Cc1cc(NS(=O)(=O)c2cccc(S(=O)(=O)Nc3cc(C)c(S(=O)(=O)C[N+](=O)[O-])c(C)c3)c2)cc(C)c1S(=O)(=O)C[N+](=O)[O-] | 191 to 192 °C |
| Cc1cc(NC(=O)C(=O)Nc2cc(C)c(S(=O)(=O)C[N+](=O)[O-])c(C)c2)cc(C)c1S(=O)(=O)C[N+](=O)[O-] | 246 to 248 °C |
| O=C(CCCC(=O)Nc1ccc(S(=O)(=O)C[N+](=O)[O-])cc1)Nc1ccc(S(=O)(=O)C[N+](=O)[O-])cc1 | 203 to 205 °C |
| Cc1cc(N(C(=O)CCC(N)=O)c2cc(C)c(S(=O)(=O)C[N+](=O)[O-])c(C)c2)cc(C)c1S(=O)(=O)C[N+](=O)[O-] | 226 to 228 °C |
| Cc1cc(NC(=O)CC(=O)Nc2cc(C)c(S(=O)(=O)C[N+](=O)[O-])c(C)c2)cc(C)c1S(=O)(=O)C[N+](=O)[O-] | 197 to 199 °C |
| Cc1cc(NC(=O)Nc2cc(C)c(S(=O)(=O)C[N+](=O)[O-])c(C)c2)cc(C)c1S(=O)(=O)C[N+](=O)[O-] | 224 to 226 °C |
| Cc1cc(NS(=O)(=O)Cc2cccc(CS(=O)(=O)Nc3cc(C)c(S(=O)(=O)C[N+](=O)[O-])c(C)c3)c2)cc(C)c1S(=O)(=O)C[N+](=O)[O-] | 124 to 130 °C |
| Cc1cc(NS(=O)(=O)c2ccccc2)cc(C)c1SC[N+](=O)[O-] [Example 3, N-[3,5-Dimethyl-4-[(nitromethyl)thio]phenyl]benzenesulphonamide] | 146 to 148 °C |
| Cc1cc(NS(=O)(=O)c2ccccc2)cc(C)c1[S+]([O-])C[N+](=O)[O-] (stereo not shown) [Example 4, N-[3,5-Dimethyl-4-[(nitromethyl)sulphinyl]phenyl]-benzenesulphonamide] | > 50 °C (dec.) |
| Cc1cc(NS(=O)(=O)c2ccc(Cl)cc2)cc(C)c1S(=O)(=O)C[N+](=O)[O-] [Example 5, 4-Chloro-N-[3,5-dimethyl-4-[(nitromethyl)sulphonyl]-phenyl]benzenesulphonamide] | 160 to 162 °C |
| Cc1cccc(S(=O)(=O)Nc2cc(C)c(S(=O)(=O)C[N+](=O)[O-])c(C)c2)c1 [Example 6, N-[3,5-Dimethyl-4-[(nitromethyl)sulphonyl]phenyl]-3-methylbenzenesulphonamide] | 179 to 181 °C |
| Cc1ccc(S(=O)(=O)Nc2cc(C)c(S(=O)(=O)C[N+](=O)[O-])c(C)c2)cc1 [Example 7, N-[3,5-Dimethyl-4-[(nitromethyl)sulphonyl]phenyl]-4-methylbenzenesulphonamide] | 163 to 165 °C |

Next, values leading:

| melting point | SMILES |
| --- | --- |
| 167 to 169 °C | Cc1cc(NS(=O)(=O)c2cc(F)c(Br)cc2F)cc(C)c1S(=O)(=O)C[N+](=O)[O-] (as salt: acetate) [Example 27, 4-Bromo-2,5-difluoro-N-[3,5-dimethyl-4-[(nitromethyl)-sulphonyl]phenyl]benzenesulphonamide] |
| 138 to 140 °C | Cc1cc(NS(C)(=O)=O)cc(C)c1S(=O)(=O)C[N+](=O)[O-] (as salt: acetate) [Example 40, N-[3,5-Dimethyl-4-[(nitromethyl)sulphonyl]phenyl]-methanesulphonamide] |
| 154 to 156 °C | Cc1cc(NS(=O)(=O)c2ccc(F)cc2F)cc(C)c1S(=O)(=O)C[N+](=O)[O-] [Example 8, 2,4-Difluoro-N-[3,5-dimethyl-4-[(nitromethyl)sulphonyl]phenyl]benzenesulphonamide] |
| 146 to 148 °C | Cc1cc(NS(=O)(=O)c2cccc(C(F)(F)F)c2)cc(C)c1S(=O)(=O)C[N+](=O)[O-] [Example 9, N-[3,5-Dimethyl-4-[(nitromethyl)sulphonyl]phenyl]-3-(trifluoromethyl)benzenesulphonamide] |
| 208 to 215 °C | Cc1cc(NS(=O)(=O)c2ccc3ccccc3c2)cc(C)c1S(=O)(=O)C[N+](=O)[O-] [Example 15, N-[3,5-Dimethyl-4-[(nitromethyl)sulphonyl]phenyl]-2-naphthalenesulphonamide] |
| 140 to 142 °C | Cc1cc(NS(=O)(=O)c2ccccc2Br)cc(C)c1S(=O)(=O)C[N+](=O)[O-] [Example 17, 2-Bromo-N-[3,5-dimethyl-4-[(nitromethyl)sulphonyl]-phenyl]benzenesulphonamide] |
| 192 to 194 °C | Cc1cc(NS(=O)(=O)c2ccc(S(C)(=O)=O)cc2)cc(C)c1S(=O)(=O)C[N+](=O)[O-] [Example 18, N-[3,5-Dimethyl-4-[(nitromethyl)sulphonyl]phenyl]-4-(methylsulphonyl)benzenesulphonamide] |
| 174 to 176 °C | Cc1cc(NS(=O)(=O)/C=C/c2ccccc2)cc(C)c1S(=O)(=O)C[N+](=O)[O-] [Example 19, (E)-N-[3,5-Dimethyl-4-[(nitromethyl)sulphonyl]phenyl]-styrenesulphonamide] |
| 194 to 196 °C | Cc1ccccc1S(=O)(=O)NC(=O)Nc1cc(C)c(S(=O)(=O)C[N+](=O)[O-])c(C)c1 [Example 20, 1-[3,5-Dimethyl-4-[(nitromethyl)sulphonyl]phenyl]-3-[(2-methylphenyl)sulphonyl]urea] |
| 150 to 155 °C | Cc1ccc(S(=O)(=O)NC(=O)Nc2cc(C)c(S(=O)(=O)C[N+](=O)[O-])c(C)c2)cc1 [Example 21, 1-[3,5-Dimethyl-4-[(nitromethyl)sulphonyl]phenyl]-3-[(4-methylphenyl)sulphonyl]urea] |
| 209 to 210 °C | CC(=O)Nc1ccc(S(=O)(=O)Nc2cc(C)c(S(=O)(=O)C[N+](=O)[O-])c(C)c2)cc1 [Example 22, N-[4-[3,5-Dimethyl-4-[(nitromethyl)sulphonyl]phenylsulphamoyl]phenyl]acetamide] |
| 168 to 170 °C | Cc1cc(NS(=O)(=O)CC(F)(F)F)cc(C)c1S(=O)(=O)C[N+](=O)[O-] [Example 23, N-[3,5-Dimethyl-4-[(nitromethyl)sulphonyl]phenyl]-2,2,2-trifluoroethanesulphonamide] |
| 132 to 134 °C | Cc1cc(NS(=O)(=O)c2cc(F)ccc2F)cc(C)c1S(=O)(=O)C[N+](=O)[O-] [Example 28, 2,5-Difluoro-N-[3,5-dimethyl-4-[(nitromethyl)sulphonyl]phenyl]benzenesulphonamide] |
| 170 to 172 °C | Cc1cc(NS(=O)(=O)c2cccc3ccccc23)cc(C)c1S(=O)(=O)C[N+](=O)[O-] [Example 31, N-[3,5-Dimethyl-4-[(nitromethyl)sulphonyl]phenyl]-1-naphthalenesulphonamide] |
| 158 to 159 °C | Cc1cc(NS(=O)(=O)c2cccs2)cc(C)c1S(=O)(=O)C[N+](=O)[O-] [Example 32, N-[3,5-Dimethyl-4-[(nitromethyl)sulphonyl]phenyl]-2-thiophenesulphonamide] |
| 112 to 114 °C | Cc1cc(NS(=O)(=O)c2ccccc2)cc(C)c1S(=O)(=O)C(Cl)(Cl)[N+](=O)[O-] [Example 33, N-[4-[(Dichloronitromethyl)sulphonyl]-3,5-dimethylphenyl]benzenesulphonamide] |
